Experimental data published in article PMC9133015 (Nature Communications, 2022).
“And” between values parts separate entries of the source, which are not always exact repeats. Equal entries are not always repeated.

How the values were obtained:
RWPE-1 cells = experiment: Anti-proliferation activity assay (CCK8, 72 h); format: cell-based; conditions: RWPE1; for Relative proliferation rate (%) / optical density: replicates
22Rv1 cells [1] = experiment: Invasion assay (transwell); format: cell-based, human; conditions: 22Rv1, 0.5 μM, replicates
22Rv1 cells [2] = experiment: Cell cycle assay (PI flow cytometry); format: cell-based, human; conditions: 22Rv1, 0.5 μM, replicates
DU145 cells [3] = experiment: Cell cycle assay (PI flow cytometry); format: cell-based, human; conditions: DU145, 2 μM, replicates
DU145 cells [4] = experiment: Invasion assay (transwell); format: cell-based, human; conditions: DU145, 2 μM, replicates
PC-3 cells [5] = experiment: Invasion assay (transwell); format: cell-based, human; conditions: PC-3; 2 µM; replicates
PC-3 cells [6] = experiment: Colony formation assay; format: cell-based, human; conditions: 2 µM, replicates
22Rv1 cells [7] = experiment: Migration assay (transwell); format: cell-based, human; conditions: 22Rv1, 0.5 μM, replicates
DU145 cells [8] = experiment: Migration assay (transwell); format: cell-based, human; conditions: DU145, 2 μM, replicates
PC-3 cells [9] = experiment: Migration assay (transwell); format: cell-based, human; conditions: PC-3; 2 µM; replicates
DU145 cells [10] = experiment: Anti-proliferation activity assay (CCK8, 72 h); format: cell-based, human; conditions: DU145; for Relative proliferation rate (%) / optical density: replicates
PC-3 cells [11] = experiment: Anti-proliferation activity assay (CCK8, 72 h); format: cell-based, human; conditions: PC-3; for Relative proliferation rate (%) / optical density: replicates

## CC(=O)c1c(C)c2cnc(Nc3ccc(N4CCNCC4)cn3)nc2n(C2CCCC2)c1=O [palbociclib]
RWPE-1 cells; 0.078 uM
  Relative proliferation rate (%) mean: 4.3459%
  Relative proliferation rate (%): 2.8348% and 5.899% and 4.304%
  optical density: 0.994 and 1.005 and 1.045
RWPE-1 cells; 0.3125 uM
  Relative proliferation rate (%) mean: 4.485%
  Relative proliferation rate (%): 1.76% and 7.21% and 4.487%
  optical density: 1.005 and 0.991 and 1.043
RWPE-1 cells; 1.25 uM
  Relative proliferation rate (%) mean: 11.7464%
  Relative proliferation rate (%): 7.038% and 16.4794% and 11.7216%
  optical density: 0.951 and 0.892 and 0.964
RWPE-1 cells; 5 uM
  Relative proliferation rate (%) mean: 24.554%
  Relative proliferation rate (%): 19.1593% and 29.8689% and 24.6337%
  optical density: 0.827 and 0.749 and 0.823
RWPE-1 cells; 20 uM
  Relative proliferation rate (%) mean: 55.5924%
  Relative proliferation rate (%): 50.0489% and 61.1423% and 55.5861%
  optical density: 0.511 and 0.415 and 0.485
RWPE-1 cells; 80 uM
  Relative proliferation rate (%) mean: 75.0851%
  Relative proliferation rate (%): 68.3284% and 81.8352% and 75.0916%
  optical density: 0.324 and 0.194 and 0.272
22Rv1 cells [1]
  Cell invasion (cell number): 531 cell number and 470 cell number and 513 cell number
22Rv1 cells [2]
  Cell cycle percentages ( % ) G0/G1: 79.03% and 81.73% and 83.36%
  Cell cycle percentages ( % ) G2/M: 9.98% and 8.76% and 8.18%
  Cell cycle percentages ( % ) S: 10.99% and 9.51% and 8.46%
DU145 cells [3]
  Cell cycle percentages ( % ) G0/G1: 59.02% and 61.19% and 64.25%
  Cell cycle percentages ( % ) G2/M: 23.03% and 20.58% and 18.04%
  Cell cycle percentages ( % ) S: 17.95% and 18.23% and 19.71%
DU145 cells [4]
  Cell invasion (cell number): 1998 cell number and 2045 cell number and 2102 cell number
PC-3 cells [5]
  Cell invasion (cell number): 1678 cell number and 1789 cell number and 1654 cell number
PC-3 cells [6]
  Colony formation (cell number): 78 cell number and 83 cell number and 81 cell number
22Rv1 cells [7]
  Cell migration (cell number): 1008 cell number and 1108 cell number and 1169 cell number
DU145 cells [8]
  Cell migration (cell number): 4289 cell number and 4310 cell number and 4198 cell number
PC-3 cells [9]
  Cell migration (cell number): 267 cell number and 257 cell number and 249 cell number
DU145 cells [10]; 0.0049 uM
  Relative proliferation rate (%) mean: 4.824%
  Relative proliferation rate (%): 3.385% and 4.869% and 6.219%
  optical density: 0.999 and 1.016 and 0.95
DU145 cells [10]; 0.078 uM
  Relative proliferation rate (%) mean: 19.5052%
  Relative proliferation rate (%): 16.5377% and 19.5693% and 22.4087%
  optical density: 0.863 and 0.859 and 0.786
DU145 cells [10]; 0.3125 uM
  Relative proliferation rate (%) mean: 28.7249%
  Relative proliferation rate (%): 24.9516% and 28.7453% and 32.4778%
  optical density: 0.776 and 0.761 and 0.684
DU145 cells [10]; 1.25 uM
  Relative proliferation rate (%) mean: 33.0518%
  Relative proliferation rate (%): 30.3675% and 33.0524% and 35.7354%
  optical density: 0.720 and 0.715 and 0.651
DU145 cells [10]; 5 uM
  Relative proliferation rate (%) mean: 54.1864%
  Relative proliferation rate (%): 49.8066% and 54.2135% and 58.539%
  optical density: 0.519 and 0.489 and 0.420
DU145 cells [10]; 20 uM
  Relative proliferation rate (%) mean: 62.4741%
  Relative proliferation rate (%): 57.4468% and 62.4532% and 67.5222%
  optical density: 0.440 and 0.401 and 0.329
DU145 cells [10]; 80 uM
  Relative proliferation rate (%) mean: 75.0057%
  Relative proliferation rate (%): 68.472% and 74.9064% and 81.6387%
  optical density: 0.326 and 0.268 and 0.186
PC-3 cells [11]; 0.078 uM
  Relative proliferation rate (%) mean: 8.515%
  Relative proliferation rate (%): 4.665% and 8.515% and 12.3646%
  optical density: 0.981 and 0.967 and 0.971
PC-3 cells [11]; 0.3125 uM
  Relative proliferation rate (%) mean: 12.5396%
  Relative proliferation rate (%): 9.427% and 12.4882% and 15.704%
  optical density: 0.932 and 0.925 and 0.934
PC-3 cells [11]; 1.25 uM
  Relative proliferation rate (%) mean: 26.3574%
  Relative proliferation rate (%): 21.0884% and 26.3955% and 31.5884%
  optical density: 0.812 and 0.778 and 0.758
PC-3 cells [11]; 5 uM
  Relative proliferation rate (%) mean: 54.2128%
  Relative proliferation rate (%): 49.8542% and 54.21% and 58.574%
  optical density: 0.516 and 0.484 and 0.459
PC-3 cells [11]; 20 uM
  Relative proliferation rate (%) mean: 74.7111%
  Relative proliferation rate (%): 68.7075% and 74.7398% and 80.6859%
  optical density: 0.322 and 0.267 and 0.214
PC-3 cells [11]; 80 uM
  Relative proliferation rate (%) mean: 84.0905%
  Relative proliferation rate (%): 77.7454% and 83.8221% and 90.704%
  optical density: 0.229 and 0.171 and 0.103
